The target of the test is T1, Human Polymorphonuclear Leukocyte Elastase (Homo sapiens, UniProt P08246).
T1 sequence (P08246 30-247 limits assumed): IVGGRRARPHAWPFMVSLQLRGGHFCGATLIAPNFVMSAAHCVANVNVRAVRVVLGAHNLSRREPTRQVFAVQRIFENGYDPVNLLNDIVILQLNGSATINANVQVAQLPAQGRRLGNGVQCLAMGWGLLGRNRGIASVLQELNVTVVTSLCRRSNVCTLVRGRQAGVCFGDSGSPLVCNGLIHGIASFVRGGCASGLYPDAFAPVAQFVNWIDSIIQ
Put plainly: Inhibition of human polymorphonuclear leukocyte elastase via hydrolysis of N-t-Boc-alanyl-alanyl-prolyl-alanine-p-nitroanilide (Boc-AAPAN). The test is classed as biochemical. As to conditions: 50% inhibition of the enzyme activity 2 minutes after zero time; crude human PMN extract, 0.2 mM Boc-AAPAN, pH 7.5; read-out: ED50 (the source's name) (converted).

This note sets out measurements from patent US4623645A, “Substituted cephalosporin sulfoxides as anti-inflammatory and antidegenerative agents” (Merck & Co., Inc., priority 1983, dated 1986).

With `CC(=O)OCC1=C(C(=O)OC(C)(C)C)N2C(=O)C(Cl)(Cl)C2[S+]([O-])C1` (stereo not shown) [7,7-dichloro / OtBu / H], the IC50 was 5.02 µM.

`COC(=O)C1=C(COC(C)=O)C[S+]([O-])C2C(OC)C(=O)N12` (stereo not shown) [OCH3 / OCH3 / H]: the IC50 was 25.2 µM.

In the case of `CO[C@H]1C(=O)N2C(C(=O)OCc3ccccc3)=C(COC(C)=O)C[S+]([O-])[C@H]12` (stereo partly drawn) [OCH3 / OCH2 .phi. / H, Benzyl 3-acetyloxymethyl-7α-methoxy-8-oxo-5-thia-1-azabicyclo[4.2.0]oct-2-ene-2-carboxylate-5-oxide], the IC50 was 7.63 µM.

Turning to `CC(=O)OCC1=C(C(=O)OC(C)(C)C)N2C(=O)[C@H](F)[C@H]2[S+]([O-])C1` (stereo partly drawn) [F / OtBu / H, t-Butyl 3-acetyloxymethyl-7α-fluoro-8-oxo-5-thia-1-azabicyclo[4.2.0]oct-2-ene-2-carboxylate-5-oxide], the IC50 was 5.76 µM.
